# Assay results taken from patent US12157730B2, “Heteroaryl derivative, method for producing same, and pharmaceutical composition comprising same as effective component” (VORONOI INC., priority 2019, dated 2024).
# Target: T1, Ba/F3 cell EGFR Exon20 ins NPH (Homo sapiens, UniProt P00533, INS773NPH)
# T1 construct: expressed in transfected cells; host or cells: Ba/F3
# Test: Ba/F3 cell proliferation suppression, EGFR Exon20 ins NPH
# Format: cell-based
# Settings: GI50 class; Ba/F3 cell line with NPH inserted at Exon20 of EGFR; 72 hours
# Procedure, shortened: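 Cells (3000–5000/well) plated 24 h before compound, 12-point 3-fold dilutions at 0.3 nM to 50 um final; Ba/F3 lines grown with 5 ng/ml IL-3. Viability by CellTiter-Glo luminescence after 72 h, growth ratio vs control, GI50 from curves; triplicate.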
row,SMILES,Ba/F3 (NPH) Activity
1,"C=CC(=O)Nc1cc(Nc2cc(N3OCC[C@@H]3Cc3ccccc3)ncn2)c(OC)cc1N1CCN(CC2CC2)CC1 [compound 959, N-(5-((6-((S)-3-benzylisoxazolidine-2-yl)pyrimidine-4-yl)amino)-2-(4-(cyclopropylmethyl)piperazine-1-yl)-4-methoxyphenyl) acrylamide]",A (GI50 < 50 nM)
2,"C=CC(=O)Nc1cc(Nc2cc(N3OCC[C@@H]3c3cc(F)ccc3F)ncn2)c(OC)cc1N1CCC(N2CCN(CC3CC3)CC2)CC1 [Example 93, N-(2-(4-(4-(cyclopropylmethyl)piperazine-1-yl)piperidine-1-yl)-5-((6-((R)-3-(2,5-difluorophenyl)isoxazolidine-2-yl)pyrimidine-4-yl)amino)-4-methoxyphenyl) acrylamide]",A (GI50 < 50 nM)
3,"C=CC(=O)Nc1cc(Nc2cc(N3OCC[C@H]3Cc3ccccc3)ncn2)c(OC)cc1N1CCC(N2CCN(C3CC3)CC2)CC1 [compound 956, N-(5-((6-((R)-3-benzylisoxazolidine-2-yl)pyrimidine-4-yl)amino)-2-(4-(4-cyclopropylpiperazine-1-yl)piperidine-1-yl)-4-methoxyphenyl) acrylamide]",C (500 nM ≤ GI50 < 5000 nM)
4,"C=CC(=O)Nc1cc(Nc2cc(N3OCC[C@@H]3c3cccc(C)c3F)ncn2)c(OC)cc1N1CCC(N2CCN(C3CC3)CC2)CC1 [Example 140, N-(2-(4-(4-cyclopropylpiperazine-1-yl)piperidine-1-yl)-5-((6-((R)-3-(2-fluoro-3-methylphenyl)isoxazolidine-2-yl)pyrimidine-4-yl)amino)-4-methoxyphenyl) acrylamide]",A (GI50 < 50 nM)
5,"C=CC(=O)Nc1cc(Nc2cc(N3OCC[C@@H]3c3ccc(Cl)cc3F)ncn2)c(OC)cc1N1CCC(N2CC[C@H](N(C)C)C2)CC1 [compound 405, N-(5-((6-((R)-3-(4-chloro-2-fluorophenyl)isoxazolidine-2-yl)pyrimidine-4-yl)amino)-2-(4-((S)-3-(dimethylamino)pyrolidine-1-yl)piperidine-1-yl)-4-methoxyphenyl) acrylamide]",B (50 nM ≤ GI50 < 500 nM)
6,"C=CC(=O)Nc1cc(Nc2cc(N3OCC[C@@H]3c3cc(F)cc(F)c3)ncn2)c(OC)cc1N1C[C@@H]2C[C@H]1CO2 [compound 437, N-(2-((1S,4S)-2-oxa-5-azabicyclo [2.2.1]heptane-5-yl)-5-((6-((R)-3-(3,5-difluorophenyl)isoxazolidine-2-yl)pyrimidine-4-yl)amino)-4-methoxyphenyl) acrylamide]",B (50 nM ≤ GI50 < 500 nM)
7,"C=CC(=O)Nc1cc(Nc2cc(N3OCC[C@@H]3c3cccc(C#N)c3)ncn2)c(OC)cc1N1C[C@@H]2CCN(C)[C@@H]2C1 [compound 332, N-(5-((6-((R)-3-(3-cyanophenyl)isoxazolidine-2-yl)pyrimidine-4-yl)amino)-4-methoxy-2-((3aS,6aS)-1-methylhexahydropyrrolo [3,4-b]pyrrole-5(1H)-yl)phenyl)acrylamide]",A (GI50 < 50 nM)
8,"C=CC(=O)Nc1cc(Nc2cc(N3OCC[C@@H]3c3cccc(Cl)c3F)ncn2)c(OC)cc1N1CCC(N2CCN(C3CC3)C[C@H]2C)CC1 [Example 149, N-(5-((6-((R)-3-(3-chloro-2-fluorophenyl)isoxazolidine-2-yl)pyrimidine-4-yl)amino)-2-(4-((R)-4-cyclopropyl-2-methylpiperazine-1-yl)piperidine-1-yl)-4-methoxyphenyl) acrylamide]",A (GI50 < 50 nM)
9,"C=CC(=O)Nc1cc(Nc2cc(N3OCC[C@@H]3c3cccc(Cl)c3C)ncn2)c(OC)cc1N1CCC(N2CCO[C@@H](C)C2)CC1 [compound 529, N-(5-((6-((R)-3-(3-chloro-2-methylphenyl)isoxazolidine-2-yl)pyrimidine-4-yl)amino)-4-methoxy-2-(4-((S)-2-methylmorpholino)piperidine-1-yl)phenyl) acrylamide]",A (GI50 < 50 nM)
10,"C=CC(=O)Nc1cc(Nc2cc(N3OCC[C@@H]3c3ccc(F)c(Cl)c3)ncn2)c(OC)cc1N1CCC(N2CCN(CC)CC2)CC1 [Example 263, N-(5-((6-((R)-3-(3-chloro-4-fluorophenyl)isoxazolidine-2-yl)pyrimidine-4-yl)amino)-2-(4-(4-ethylpiperazine-1-yl)piperidine-1-yl)-4-methoxyphenyl) acrylamide]",A (GI50 < 50 nM)
11,"C=CC(=O)Nc1cc(Nc2cc(N3OCC[C@@H]3c3cccc(F)c3Cl)ncn2)c(OC)cc1N1CCC(N2CCN(CC)CC2)CC1 [compound 602, N-(5-((6-((R)-3-(2-chloro-3-fluorophenyl)isoxazolidine-2-yl)pyrimidine-4-yl)amino)-2-(4-(4-thylpiperazine-1-yl)piperidine-1-yl)-4-methoxyphenyl) acrylamide]",A (GI50 < 50 nM)
12,"C=CC(=O)Nc1cc(Nc2cc(N3OCC[C@@H]3c3c(F)ccc(F)c3F)ncn2)c(OC)cc1N1CCC(N2CCN(C3CC3)[C@H](C)C2)CC1 [Example 166, N-(2-(4-((R)-4-cyclopropyl-3-methylpiperazine-1-yl)piperidine-1-yl)-4-methoxy-5-((6-((R)-3-(2,3,6-trifluorophenyl)isoxazolidine-2-yl)pyrimidine-4-yl)amino)phenyl)acrylamide]",A (GI50 < 50 nM)
13,"C=CC(=O)Nc1cc(Nc2cc(N3OCC[C@@H]3c3ccc(F)c(F)c3)ncn2)c(OC)cc1N1CCN(CC)CC1 [compound 460, N-(5-((6-((R)-3-(3,4-difluorophenyl)isoxazolidine-2-yl)pyrimidine-4-yl)amino)-2-(4-ethylpiperazine-1-yl)-4-methoxyphenyl) acrylamide]",A (GI50 < 50 nM)
14,"C=CC(=O)Nc1cc(Nc2cc(N3OCC[C@@H]3c3c(F)ccc(F)c3F)ncn2)c(OC)cc1N(C)CCN(C)C [compound 628, N-(2-((2-(dimethylamino)ethyl) (methyl)amino)-4-methoxy-5-((6-((R)-3-(2,3,6-trifluorophenyl)isoxazolidine-2-yl)pyrimidine-4-yl)amino)phenyl)acrylamide]",A (GI50 < 50 nM)
15,"C=CC(=O)Nc1cc(Nc2cc(N3OCC[C@@H]3c3ccc(F)cc3F)ncn2)c(OC)cc1N1C[C@@H]2C[C@H]1CO2 [compound 324, N-(2-((1S,4S)-2-oxa-5-azabicyclo[2.2.1]heptane-5-yl)-5-((6-((R)-3-(2,4-difluorophenyl)isoxazolidine-2-yl)pyrimidine-4-yl)amino)-4-methoxyphenyl) acrylamide]",A (GI50 < 50 nM)
16,"C=CC(=O)Nc1cc(Nc2cc(N3OCC[C@@H]3c3cccc(F)c3F)ncn2)c(OC)cc1N1CCC(N2CCN(C3CC3)[C@@H](C)C2)CC1 [Example 175, N-(2-(4-((S)-4-cyclopropyl-3-methylpiperazine-1-yl)piperidine-1-yl)-5-((6-((R)-3-(2,3-difluorophenyl)isoxazolidine-2-yl)pyrimidine-4-yl)amino)-4-methoxyphenyl) acrylamide]",A (GI50 < 50 nM)
17,"C=CC(=O)Nc1cc(Nc2cc(N3OCC[C@@H]3c3cccc(F)c3)ncn2)c(OC)cc1N1CC[C@H](N(C)C)C1 [compound 839, N-(2-((S)-3-(dimethylamino)pyrolidine-1-yl)-5-((6-((R)-3-(3-fluorophenyl)isoxazolidine-2-yl)pyrimidine-4-yl)amino)-4-methoxyphenyl) acrylamide]",A (GI50 < 50 nM)
